pIC50: −log10 of the molar value. Values after ≈ are worked out from the molar mass of the structure shown. Read-outs that look alike come from different tables or passages of the source.
Columns and labels:
[1] = system: DiscoverX KinomeSCAN assay panel of >400 human kinases; conditions: cited from earlier work; for Kinases Inhibited: Number of kinases showing 90% inhibition at 1 µM in DiscoverX KINOMEscan, ref [6]
[2] = set-up: method as in PMID 37077385; conditions: Kinetic solubility; ref [6]; cited from earlier work
CSNK2A (CSNK2A2-NLuc) = biological target: T1, CSNK2A (CSNK2A2-NLuc) (Homo sapiens, UniProt P19784); assay: In-cell CSNK2A target engagement by NanoBRET assay; type: cell-based; conditions: for pIC50: In-cell target engagement by NanoBRET assay, HEK293 cells; for Designation: active / inactive analogs with 10-fold differences in IC50; for fold increase in CSNK2A potency: compared to 4q; for fold decrease in CSNK2A potency: compared to the parent compounds (4s and 4w)
T1 construct: expressed in transfected cells; host or cells: HEK293
T1 sequence (P19784 whole entry): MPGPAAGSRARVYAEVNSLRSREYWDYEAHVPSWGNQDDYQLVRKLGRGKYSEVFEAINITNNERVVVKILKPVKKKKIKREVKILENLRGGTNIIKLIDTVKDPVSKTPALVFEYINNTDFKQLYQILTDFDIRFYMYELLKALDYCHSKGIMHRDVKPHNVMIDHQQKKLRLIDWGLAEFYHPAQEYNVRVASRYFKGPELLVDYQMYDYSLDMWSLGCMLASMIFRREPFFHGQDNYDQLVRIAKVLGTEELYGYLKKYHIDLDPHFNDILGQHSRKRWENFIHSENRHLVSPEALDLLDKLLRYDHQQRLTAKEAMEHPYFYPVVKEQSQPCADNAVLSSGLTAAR
Description: A transfection complex of DNA at 10 µg/mL was created, consisting of 9 µg/mL of carrier DNA (Promega, Madison, WI, USA) and 1 µg/mL of CSNK2A2-NLuc fusion DNA in Opti-MEM without serum (Gibco). FuGENE HD (Promega) was added at 30 µL/mL to form a lipid/DNA complex. The solution was then mixed and incubated at room temperature for 20 min. […] The following day, the media was removed via aspiration and replaced with 85 μL of Opti-MEM without phenol red. A total of 5 μL per well of 20×-NanoBRET Tracer K10 (Promega) at 5 μM in Tracer Dilution Buffer (Promega N291B) was added to all wells, except the “no tracer” control wells. Test compounds (10 mM in DMSO) were diluted 100× in Opti-MEM media to prepare stock solutions and evaluated at eleven concentrations. A total of 10 μL per well of the 10-fold test compound stock solutions (final assay concentration of 0.1% DMSO) was added. […] 96-well plates containing cells with NanoBRET Tracer K10 and test compounds (100 µL total volume per well) were equilibrated (37 °C/5% CO2) for 2 h. The plates were cooled to room temperature for 15 min. […] A total of 50 μL of the 3× substrate/extracellular NL inhibitor were added to each well. The plates were read within 30 min on a GloMax Discover luminometer (Promega) equipped with 450 nm BP filter (donor) and 600 nm LP filter (acceptor) using 0.3 s integration time. Raw milliBRET (mBRET) values were obtained by dividing the acceptor emission values (600 nm) by the donor emission values (450 nm) and multiplying by 1000. […] The data were first normalized and then fit using Sigmoidal, 4PL binding curve in GraphPad Prism version 9.5.1 to determine IC50 values (Figure S1).

[3] = Kinetic solubility in PBS pH 7.4; type: physicochemical; conditions: phosphate-buffered saline, pH 7.4, aqueous buffer, kinetic from dmso stock, PBS pH 7.4, 24 h
Description: Kinetic solubility assay was conducted using 10 mM DMSO stocks of compounds in phosphate-buffered saline solution (PBS) at pH 7.4 by Analiza, Inc., Cleveland, OH, USA. […] The calculated values were corrected for the background nitrogen in the media and DMSO.

[4] = system: Mouse Hepatitis Virus (MHV); assay: microbe, parasite or virus in culture; type: cell-based; conditions: Murine coronavirus, read-out: MHV IC50
[5] = Inhibition of MHV-NLuc in DBT cells

Row | Structure (SMILES) | pIC50 (CSNK2A (CSNK2A2-NLuc)) | solubility at 24 h [3] | melting point | pIC50 [4, 5] | other results
1 | O=C(O)c1ccc2c(c1)nc(Nc1ccc3ccccc3c1)c1ncncc12 [Analog-11] |  |  |  |  | Kinases Inhibited [1]: 10/403; Aqueous Solubility [2]: 54 µM
2 | O=C(O)c1ccc2c(c1)nc(NCC1CCC(F)(F)CC1)c1ncncc12 [Compound 4aa, 5-(((4,4-difluorocyclohexyl)methyl)amino)pyrimido[4,5-c]quinoline-8-carboxylic acid] | 6.72 | 180 µM (≈ 67 µg/mL) | 288 to 291 °C | 5.00 | 
3 | O=C(O)c1ccc2c(c1)nc(NC1CCc3ccccc31)c1ncncc12 (stereo not shown) [Compound 4af, 5-((2,3-dihydro-1H-inden-1-yl)amino)pyrimido[4,5-c]quinoline-8-carboxylic acid] | 6.64 | 160 µM (≈ 57 µg/mL) | 270 to 273 °C | 4.66 | Designation (CSNK2A (CSNK2A2-NLuc)): Active
4 | O=C(O)c1ccc2c(c1)nc(NCc1ccc(Cl)cc1)c1ncncc12 [Compound 4c, 5-((4-chlorobenzyl)amino)pyrimido[4,5-c]quinoline-8-carboxylic acid] | 6.89 | 160 µM (≈ 58.4 µg/mL) | 203 to 205 °C | 4.89 | 
5 | O=C(O)c1ccc2c(c1)nc(NCc1ccc(F)cc1)c1ncncc12 [Compound 4g, 5-((4-fluorobenzyl)amino)pyrimido[4,5-c]quinoline-8-carboxylic acid] | 6.82 | 180 µM (≈ 62.7 µg/mL) | 235 to 238 °C | 5.00 | 
6 | O=C(O)c1ccc2c(c1)nc(NCc1ccc(C(F)F)cc1)c1ncncc12 [Compound 4i, 5-((4-(difluoromethyl)benzyl)amino)pyrimido[4,5-c]quinoline-8-carboxylic acid] | 6.33 | 150 µM (≈ 57.1 µg/mL) | 250 to 255 °C |  | 
7 | O=C(O)c1ccc2c(c1)nc(NCc1ccc(C(F)(F)F)cc1)c1ncncc12 [Compound 4j, 5-((4-(trifluoromethyl)benzyl)amino)pyrimido[4,5-c]quinoline-8-carboxylic acid] | 6.19 | 160 µM (≈ 63.7 µg/mL) | 245 to 248 °C |  | 
8 | N#Cc1ccc(CNc2nc3cc(C(=O)O)ccc3c3cncnc23)cc1 [Compound 4k, 5-((4-cyanobenzyl)amino)pyrimido[4,5-c]quinoline-8-carboxylic acid] | 6.28 | 160 µM (≈ 56.9 µg/mL) | 270 to 275 °C |  | 
9 | O=C(O)c1ccc2c(c1)nc(NCc1ccc(-c3ccc(Cl)cc3)cc1)c1ncncc12 [Compound 4l, 5-(((4′-chloro-[1,1′-biphenyl]-4-yl)methyl)amino)pyrimido[4,5-c]quinoline-8-carboxylic acid] | 5.72 | < 1 µM | 246 to 248 °C |  | 
10 | O=C(O)c1ccc2c(c1)nc(NCc1ccc3ccccc3c1)c1ncncc12 [Compound 4m, 5-((naphthalen-2-ylmethyl)amino)pyrimido[4,5-c]quinoline-8-carboxylic acid] | 6.30 | 5 µM (≈ 1.9 µg/mL) | 250 to 253 °C |  | 
11 | O=C(O)c1ccc2c(c1)nc(NCC1CCCCC1)c1ncncc12 [Compound 4t, 5-((cyclohexylmethyl)amino)pyrimido[4,5-c]quinoline-8-carboxylic acid] | 6.85 | 180 µM (≈ 60.6 µg/mL) | 281 to 283 °C | 4.89 | Designation (CSNK2A (CSNK2A2-NLuc)): Active
12 | O=C(O)c1ccc2c(c1)nc(NCC1CCCCCC1)c1ncncc12 [Compound 4u, 5-((cycloheptylmethyl)amino)pyrimido[4,5-c]quinoline-8-carboxylic acid] | 6.70 | 150 µM (≈ 52.6 µg/mL) | 280 to 283 °C | 4.74 | 
13 | O=C(O)c1ccc2c(c1)nc(NCC13CCC(CC1)C3)c1ncncc12 [Compound 4w, 5-((bicyclo[2.2.1]heptan-1-ylmethyl)amino)pyrimido[4,5-c]quinoline-8-carboxylic acid] | 6.77 | 190 µM (≈ 66.2 µg/mL) | 291 to 292 °C | 4.77 | 
14 | O=C(O)c1ccc2c(c1)nc(NCC13CC4CC(CC(C4)C1)C3)c1ncncc12 [Compound 4x, 5-((((3r,5r,7r)-adamantan-1-yl)methyl)amino)pyrimido[4,5-c]quinoline-8-carboxylic acid] | 6.85 | ~10 µM (≈ 3.88 µg/mL) | 292 to 296 °C | < 4.52 | 
15 | CCC(=O)Nc1cc(Nc2cc(NC3CC3)n3ncc(C#N)c3n2)ccc1C [SGC-CK2-1] |  |  |  |  | Kinases Inhibited [1]: 3/403; inhibition of CSNK2A1, CSNK2A2, and STK17B ([1]; at 1 µM, only these kinases of the panel, ref [3]): 90%
16 | O=C(O)c1ccc2c(c1)nc(NCc1ccccc1)c1ncncc12 [SGC-CK2-2, reference compound] |  |  |  |  | pIC50 [4]: 4.82; Aqueous Solubility [2]: 210 µM
17 | O=C(O)c1ccc2c(c1)nc(Nc1cccc(Cl)c1)c1ccncc12 [silmitasertib, 5-(3-chlorophenylamino)benzo[c][2,6]naphthyridine-8-carboxylic acid] |  |  |  |  | Kinases Inhibited [1]: 28/403; Aqueous Solubility [2]: 280 µM

Further lines, with some results ahead:

Row | pIC50 (CSNK2A (CSNK2A2-NLuc)) | solubility at 24 h [3] | melting point | Structure (SMILES) | pIC50 [4, 5] | other results
18 | 5.10 | 140 µM (≈ 46.4 µg/mL) | 250 to 254 °C | O=C(O)c1ccc2c(c1)nc(NCc1ccccn1)c1ncncc12 [Compound 4n, 5-((pyridin-2-ylmethyl)amino)pyrimido[4,5-c]quinoline-8-carboxylic acid] |  | 
19 | 5.22 | 200 µM (≈ 66.3 µg/mL) | 270 to 274 °C | O=C(O)c1ccc2c(c1)nc(NCc1cccnc1)c1ncncc12 [Compound 4o, 5-((pyridin-3-ylmethyl)amino)pyrimido[4,5-c]quinoline-8-carboxylic acid] |  | 
20 | 4.85 | 200 µM (≈ 66.3 µg/mL) | 274 to 276 °C | O=C(O)c1ccc2c(c1)nc(NCc1ccncc1)c1ncncc12 [Compound 4p, 5-((pyridin-4-ylmethyl)amino)pyrimido[4,5-c]quinoline-8-carboxylic acid] |  | 
21 | 5.92 | 170 µM (≈ 50.4 µg/mL) | 270 to 273 °C | CC(C)CNc1nc2cc(C(=O)O)ccc2c2cncnc12 [Compound 4q, 5-(isobutylamino)pyrimido[4,5-c]quinoline-8-carboxylic acid] |  | 
22 | 6.39 | 220 µM (≈ 67.8 µg/mL) | 265 to 268 °C | O=C(O)c1ccc2c(c1)nc(NCC1CCC1)c1ncncc12 [Compound 4r, 5-((cyclobutylmethyl)amino)pyrimido[4,5-c]quinoline-8-carboxylic acid] |  | fold increase in CSNK2A potency (CSNK2A (CSNK2A2-NLuc)): 3 fold
23 | 6.49 | 210 µM (≈ 67.7 µg/mL) | 261 to 264 °C | O=C(O)c1ccc2c(c1)nc(NCC1CCCC1)c1ncncc12 [Compound 4s, 5-((cyclopentylmethyl)amino)pyrimido[4,5-c]quinoline-8-carboxylic acid] |  | fold increase in CSNK2A potency (CSNK2A (CSNK2A2-NLuc)): 3 fold
24 | 6.06 | 190 µM (≈ 59 µg/mL) | 282 to 285 °C | CC(C)(C)CNc1nc2cc(C(=O)O)ccc2c2cncnc12 [Compound 4v, 5-(neopentylamino)pyrimido[4,5-c]quinoline-8-carboxylic acid] |  | 
25 | 5.51 | 140 µM (≈ 45.4 µg/mL) | 160 to 164 °C | O=C(O)c1ccc2c(c1)nc(NCC1CCOC1)c1ncncc12 (stereo not shown) [Compound 4y, 5-(((tetrahydrofuran-3-yl)methyl)amino)pyrimido[4,5-c]quinoline-8-carboxylic acid] |  | fold decrease in CSNK2A potency (CSNK2A (CSNK2A2-NLuc)): 10 fold
26 | 5.85 | 220 µM (≈ 77.1 µg/mL) | 280 to 284 °C | O=C(O)c1ccc2c(c1)nc(NCC13CCC(CC1)O3)c1ncncc12 [Compound 4z, 5-(((7-oxabicyclo[2.2.1]heptan-1-yl)methyl)amino)pyrimido[4,5-c]quinoline-8-carboxylic acid] |  | fold decrease in CSNK2A potency (CSNK2A (CSNK2A2-NLuc)): 10 fold

Reference: publication PMC10976173, “Synthesis of 5-Benzylamino and 5-Alkylamino-Substituted Pyrimido[4,5-c]quinoline Derivatives as CSNK2A Inhibitors with Antiviral Activity” (Pharmaceuticals, 2024)
